Assay results from ChEMBL document CHEMBL4354802, “Peptide derivatives as inhibitors of NS2B-NS3 protease from Dengue, West Nile, and Zika flaviviruses” (Bioorg Med Chem, 2019).
Non-standard residues stand in square brackets, D forms with d. Residues, ends and D or L forms follow the SMILES beside them. ξ: configuration not given here. *: point of attachment. Trp(5-NO2) = N[C@@H](Cc1c[nH]c2ccc([N+](=O)[O-])cc12)C(=O)O; Gly(2-naphthyl) = N[C@H](C(=O)O)c1ccc2ccccc2c1; ξR = N=C(N)NCCCC(N)C(=O)O; 2Abz = Nc1ccccc1C(=O)O; PhAc = O=C(Cc1ccccc1)*

What was measured:
Genome polyprotein [1] = biological target: T1, Genome polyprotein (West Nile virus, UniProt P06935); experiment: Inhibition of West Nile virus NS2B-NS3 protease preincubated for 1 hr followed by Pyr-RTKR-AMC addition and measured after 30 mins by fluorescence method
T1 sequence (P06935 1371-1501 limits assumed): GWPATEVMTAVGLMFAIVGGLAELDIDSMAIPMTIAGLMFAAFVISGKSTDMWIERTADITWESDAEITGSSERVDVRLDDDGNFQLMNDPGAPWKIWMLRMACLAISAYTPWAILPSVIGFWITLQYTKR
T1 sequence (P06935 1502-2120 limits assumed): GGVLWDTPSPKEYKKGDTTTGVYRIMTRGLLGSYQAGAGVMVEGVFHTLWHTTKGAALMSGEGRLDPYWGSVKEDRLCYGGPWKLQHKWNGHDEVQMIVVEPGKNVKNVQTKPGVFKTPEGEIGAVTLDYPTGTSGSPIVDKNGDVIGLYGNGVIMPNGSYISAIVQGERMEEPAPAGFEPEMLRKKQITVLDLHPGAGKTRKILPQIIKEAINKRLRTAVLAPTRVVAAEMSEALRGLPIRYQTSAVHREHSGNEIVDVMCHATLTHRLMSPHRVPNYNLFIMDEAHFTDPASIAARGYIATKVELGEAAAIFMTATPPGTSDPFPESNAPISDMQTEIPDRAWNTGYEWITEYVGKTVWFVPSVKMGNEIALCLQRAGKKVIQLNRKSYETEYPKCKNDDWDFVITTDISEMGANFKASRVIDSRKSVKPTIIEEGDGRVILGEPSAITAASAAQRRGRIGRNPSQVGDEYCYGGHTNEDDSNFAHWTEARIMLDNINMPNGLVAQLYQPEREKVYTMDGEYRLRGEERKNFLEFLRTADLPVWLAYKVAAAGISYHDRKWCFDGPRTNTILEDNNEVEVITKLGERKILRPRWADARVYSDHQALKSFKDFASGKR

thrombin (prothrombin) = thrombin (prothrombin) (Homo sapiens, UniProt P00734); experiment: Inhibition of human thrombin at 25 uM preincubated for 15 mins followed by Boc-Val-Pro-Arg-AMC addition and measured for 10 mins by continuous fluorimetric assay relative to control; conditions: human thrombin enzyme, probe Boc-Val-Pro-Arg-AMC
Nonstructural protein 3 [2] = biological target: T2, Nonstructural protein 3 (Zika virus, UniProt A0A024AXB9); experiment: Inhibition of Zika virus unlinked NS2B-NS3 protease preincubated for 5 mins followed by benzoyl-nKRR-AMC addition and measured every 60 secs for 12 mins by fluorescence method
T2 sequence (A0A024AXB9 whole entry): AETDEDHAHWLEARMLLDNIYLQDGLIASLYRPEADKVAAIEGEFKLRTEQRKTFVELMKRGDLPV

Genome polyprotein [3] = biological target: T1, Genome polyprotein; experiment: Inhibition of West Nile virus NS2B (47 residues)-NS3 (184 residues) protease expressed in Escherichia coli BL21 (DE3) preincubated for 15 mins followed by Benzoyl-Nle-KRR-AMC addition and measured after 30 mins by fluorescence method
Nonstructural protein 3 [4] = biological target: T2, Nonstructural protein 3; experiment: Inhibition of Zika virus IbH_30656 NS2B (45 to 96 residues)-NS3 (1 to 177 residues) protease expressed in Escherichia coli BL21/Rosetta (DE3) cells preincubated for 60 mins followed by Bz-nKRR-AMC addition and measured at 60 secs intervals over 10 mins by fluorescence method
Nonstructural protein 3 [5] = biological target: T2, Nonstructural protein 3; experiment: Inhibition of N-terminal His6-SUMO tagged Zika virus Puerto Rico NS2B-NS3 linked protease expressed in Escherichia coli BL21 Codon Plus (DE3) cells preincubated for 10 mins followed by pyr-TGKR-AMC addition and measured every 5 secs for 2 mins by fluorometric enzyme assay
Nonstructural protein 3 [6] = biological target: T2, Nonstructural protein 3; experiment: Inhibition of N-terminal His6-SUMO tagged Zika virus Puerto Rico NS2B-NS3 unlinked protease expressed in Escherichia coli BL21 Codon Plus (DE3) cells preincubated for 10 mins followed by pyr-TGKR-AMC addition and measured every 5 secs for 2 mins by fluorometric enzyme assay
Nonstructural protein 3 [7] = biological target: T2, Nonstructural protein 3; experiment: Inhibition of N-terminal His6-SUMO tagged Zika virus Puerto Rico NS2B-NS3 unlinked protease expressed in Escherichia coli BL21 Codon Plus (DE3) cells preincubated for 90 mins followed by pyr-TGKR-AMC addition and measured every 5 secs for 2 mins by fluorometric enzyme assay
Genome polyprotein [8] = biological target: T3, Genome polyprotein (dengue virus type 2, UniProt P29990); experiment: Inhibition of Dengue virus serotype 2 NS2B(40 residues)-NS3 (185 residues) protease preincubated for 30 mins followed by ABz-nKRR-AMC addition and measured after 30 mins by fluorescence method
T3 sequence (P29990 1346-1475 limits assumed): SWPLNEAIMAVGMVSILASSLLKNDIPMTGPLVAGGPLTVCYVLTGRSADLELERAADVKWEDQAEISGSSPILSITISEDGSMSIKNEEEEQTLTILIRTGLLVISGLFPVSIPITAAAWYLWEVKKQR
T3 sequence (P29990 1476-2093 limits assumed): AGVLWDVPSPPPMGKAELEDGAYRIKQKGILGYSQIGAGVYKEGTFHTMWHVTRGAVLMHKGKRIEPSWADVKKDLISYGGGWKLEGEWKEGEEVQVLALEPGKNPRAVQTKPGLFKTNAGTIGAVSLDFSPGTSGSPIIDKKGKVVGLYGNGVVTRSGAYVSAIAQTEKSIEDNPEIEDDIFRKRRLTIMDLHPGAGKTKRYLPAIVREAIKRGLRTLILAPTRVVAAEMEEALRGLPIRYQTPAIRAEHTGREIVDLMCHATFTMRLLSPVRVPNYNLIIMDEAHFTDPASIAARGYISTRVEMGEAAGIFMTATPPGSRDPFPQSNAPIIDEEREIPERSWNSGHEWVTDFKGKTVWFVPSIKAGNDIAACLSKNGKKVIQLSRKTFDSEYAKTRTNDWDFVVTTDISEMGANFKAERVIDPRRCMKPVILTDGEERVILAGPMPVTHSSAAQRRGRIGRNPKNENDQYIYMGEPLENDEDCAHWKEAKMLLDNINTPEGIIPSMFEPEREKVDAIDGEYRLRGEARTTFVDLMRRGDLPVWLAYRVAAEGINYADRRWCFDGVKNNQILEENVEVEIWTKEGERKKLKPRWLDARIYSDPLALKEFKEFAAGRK

Genome polyprotein [9] = biological target: T1, Genome polyprotein; experiment: Inhibition of West Nile virus protease
Genome polyprotein [10] = experiment: Inhibition of Dengue virus serotype 1 NS2B-NS3 protease preincubated for 20 mins followed by Abz-RRRRSAG-nY-NH2 addition and measured for 60 mins by fluorescence method; parameters: species or system dengue virus type 1
Target sequence in this assay (P29990 1346-1475 limits assumed): as the sequence (P29990 1346-1475 limits assumed) above
Target sequence in this assay (P29990 1476-2093 limits assumed): as the sequence (P29990 1476-2093 limits assumed) above

Genome polyprotein [11] = biological target: T3, Genome polyprotein; experiment: Inhibition of Dengue virus serotype 2 NS2B-NS3 protease preincubated for 20 mins followed by Abz-RRRRSAG-nY-NH2 addition and measured for 60 mins by fluorescence method
Genome polyprotein [12] = biological target: T1, Genome polyprotein; experiment: Inhibition of West Nile virus NS2B-NS3 protease preincubated for 10 mins followed by Np-KKR-pNA addition and measured every 5 secs for 2 mins by fluorescence method

Work on `CC(=O)N[C@@H](CCCCN)C(=O)N[C@@H](CCCCN)C(=O)NCCCCNC(=N)N` yielded an IC50 (Genome polyprotein [1]) of 18700 nM and a Ki (Genome polyprotein [1]) of 4900 nM.

Work on `CCCC[C@H](NC(=O)[C@H](CCCCN)NC(=O)[C@H](CCCNC(=N)N)NC(=O)c1ccc(/C=C(\C#N)C(=O)NC2CC2)cc1)C(N)=O` yielded an inhibition at 10 min, 25 µM (thrombin (prothrombin)) of 13.4%.

`N=C(N)NCCC[C@H](NC(=O)[C@H](CCCCN)NC(=O)[C@H](CCCCN)NC(=O)Cc1ccc(CNC(=N)N)cc1)C(N)=O` gave an IC50 (Nonstructural protein 3 [2]) of 1600 nM and a Ki (Nonstructural protein 3 [2]) of 600 nM.

Work on `N=C(N)NCCCC(C=O)NC(=O)[C@H](CCCCN)NC(=O)c1ncc[nH]1` (stereo not given in full) yielded a Ki (Genome polyprotein [3]) of 120 nM.

For `[H]/N=C(\N)NCCC[C@@H](C=O)NC(=O)[C@H](CCCCN)NC(C)=O`, the IC50 (Nonstructural protein 3 [4]) was 280 nM.

In the case of `N=C(N)NCCC[C@H](NC(=O)c1nccs1)C(=O)N[C@@H](CCCCN)C(=O)N[C@H](C(N)=O)c1ccc(OCc2ccc(C(F)(F)F)cc2)cc1`, the IC50 (Nonstructural protein 3 [5]) is reported as 1040 nM, the IC50 (Nonstructural protein 3 [6]) is reported as 1060 nM and the IC50 (Nonstructural protein 3 [7]) is reported as 1350 nM.

`N=C(N)NCCC[C@H](NC(=O)Cc1ccc(CNC(=N)N)cc1)C(=O)N[C@@H](CCCNC(=N)N)C(=O)N[C@@H](CCCNC(=N)N)C(=O)NCc1ccc(C(=N)N)cc1` was tested, and the IC50 (Nonstructural protein 3 [2]) was 1100 nM and the Ki (Nonstructural protein 3 [2]) was 430 nM.

Work on `N=C(N)NCCC[C@@H](C=O)NC(=O)[C@H](CCCCN)NC(=O)[C@H](CCCCN)NC(=O)Cc1ccc(-c2ccccc2)cc1` yielded an IC50 (Genome polyprotein [8]) of 12200 nM and an IC50 (Genome polyprotein [9]) of 56 nM.

Compound `CC(=O)N[C@@H](CCCNC(=N)N)C(=O)N[C@@H](CCCNC(=N)N)C(=O)N[C@@H](CCCNC(=N)N)C(=O)N[C@@H](CCCNC(=N)N)C(=O)N[C@@H](Cc1cnc[nH]1)C(=O)N[C@@H](Cc1c[nH]c2ccccc12)C(=O)N[C@@H](CS)C(=O)N[C@@H](Cc1c[nH]c2ccccc12)C(N)=O` (Ac-RRRRHWCW-NH2) has a Ki (Genome polyprotein [10]) of 400 nM and a Ki (Genome polyprotein [11]) of 300 nM.

With `N=C(N)NCCCC(NC(=O)[C@H](CCCCN)NC(=O)[C@H](CCCCN)NC(=O)[C@@H](NC(=O)[C@H](Cc1c[nH]cn1)NC(=O)CNC(=O)CN)c1ccc2ccccc2c1)C(N)=O` (stereo not given in full) (H-GGH[Gly(2-naphthyl)]KK[ξR]-NH2) the Ki (Genome polyprotein [12]) was 8000 nM.

In the case of `CC(C)C[C@H](NC(=O)[C@H](Cc1cnc[nH]1)NC(=O)[C@H](CCCNC(=N)N)NC(=O)[C@H](CCCNC(=N)N)NC(=O)[C@H](CCCNC(=N)N)NC(=O)[C@@H](N)CCCNC(=N)N)C(=O)N[C@@H](CS)C(=O)N[C@@H](Cc1c[nH]c2ccccc12)C(N)=O` (H-RRRRHLCW-NH2), the Ki (Genome polyprotein [10]) is reported as 300 nM and the Ki (Genome polyprotein [11]) is reported as 400 nM.

Compound `N=C(N)NCCC[C@H](NC(=O)[C@H](CCCNC(=N)N)NC(=O)[C@H](CCCNC(=N)N)NC(=O)[C@@H](N)CCCNC(=N)N)C(=O)N[C@@H](Cc1cnc[nH]1)C(=O)N[C@@H](Cc1c[nH]c2ccccc12)C(=O)N[C@@H](CS)C(=O)N[C@@H](Cc1c[nH]c2ccccc12)C(N)=O` (H-RRRRHWCW-NH2) has a Ki (Genome polyprotein [10]) of 400 nM and a Ki (Genome polyprotein [11]) of 300 nM.

`CC(C)C[C@H](NC(=O)[C@H](Cc1cnc[nH]1)NC(=O)[C@H](CCCNC(=N)N)NC(=O)[C@H](CCCNC(=N)N)NC(=O)[C@H](CCCNC(=N)N)NC(=O)[C@H](CCCNC(=N)N)NC(=O)c1ccccc1N)C(=O)N[C@@H](CS)C(=O)N[C@@H](Cc1c[nH]c2ccc([N+](=O)[O-])cc12)C(N)=O` (H-[2Abz]RRRRHLC[Trp(5-NO2)]-NH2) was tested, and the Ki (Genome polyprotein [10]) was 300 nM and the Ki (Genome polyprotein [11]) was 1100 nM.

Compound `N=C(N)NCCC[C@H](NC(=O)[C@H](CCCCN)NC(=O)[C@H](CCCCN)NC(=O)Cc1ccccc1)C(=O)NCC(=O)NCC(N)=O` (PhAc-KKRGG-NH2) has an IC50 (Nonstructural protein 3 [2]) of 1200 nM and a Ki (Nonstructural protein 3 [2]) of 470 nM.
